BA content released, estimated exchange rate and Kex data for 2 compounds are collected here from US20250288206A1, “SYSTEMS AND METHODS FOR MONITORING OF DELIVERY OF LABEL-FREE DRUGS” (City University of Hong Kong, priority 2024, published 2025).

A short description of series [1]: Release study of BA-DMSO liposome by dialysis (CEST MRI and UV 257 nm). The following applies: at the end of dialysis, BA in 10% DMSO in liposomes. In kind it is physicochemical. As to the method:
The size, polydispersity index (PDI), and surface charge of DMSO liposome were measured by dynamic light scattering using Zetasizer (Malvern Instruments, UK). Liposome concentration was measured by light scattering using NanoSight (Malvern Instruments, UK). To study the release property, dialysis cassettes with molecular weight cut-off of 10 kDa (Thermo Fisher, Waltham, USA) were used. The cassettes were first hydrated in HBS for 2 minutes. 1 mL of liposome sample was then loaded into the membrane chamber of two separate cassettes and excess air was removed by gentle squeezing of the membrane. The loaded cassettes were submerged into two beakers with 50 mL HBS at 37° C. At 15 min, 30 min, 1 hour, and 3 hour, 200 μL of dialyzed liposomes were taken out for CEST MRI measurement. In the other dialysis cassette, 1 mL of dialysis medium were taken out from the cassette at each timepoint for UV spectrometric measurement at an absorbance of 257 nm, and 1 mL of fresh medium was added after each time the medium was taken out. The retention of drug within liposome before and after dialysis was determined by measuring the UV absorbance of the supernatant obtained by treating liposome solutions with 10% Triton-X solution, sonicating at 42° C. for 1 hour, and centrifuging at 10,000 rpm. Concentration of BA was determined from BA standard curve.

Series [2] in a line: Bloch-McConnell fitting of DMSO CEST peak. In kind it is physicochemical. The settings on record: 10% v/v DMSO. Here is the method:
During the course leading to the present invention, a series of internal and external factors that can influence DMSO's CEST effect were examined. DMSO's concentration linearly correlated with observed signal magnitude, while the change in signal when varying pH from pH 5.5 to pH 8 was less obvious. As temperature went down from 40° C. to 20° C., DMSO's CEST peak gradually moved upfield (please see FIGS. 1F to 1G). It appears that intermolecular interaction between DMSO and water was dependent on temperature. […] Exchange rate and was estimated with Bloch-McConnell fitting. Input of solute concentration was 1.41 M (molar concentration of 10% v/v DMSO) multiplied by a factor of 1.4, which was an estimation of concentration of “structured” water that formed by intermolecular interaction with DMSO and thereby served as relaying sites.

Each structure is given as a SMILES string.

As for `O=C1CC(=O)NC(=O)N1` [BA, barbituric acid], the BA content released entry in series [1] is reported as “around 80%”.
With `C[S+](C)[O-]` [DMSO, dimethyl sulfoxide], in series [2] (Bloch-McConnell fitting), the estimated exchange rate entry was “around 2 Hz”. For the same compound, in series [2] (fitted value, B0 3T, B1 1.2 μT, Tsat 4 s), the Kex came to 2.1341 s⁻¹.
